Data reported in patent US20100093661A1, “COMPOSITION COMPRISING CHITOSAN AND AN ACIDIC DRUG FOR ORAL CONTROLLED RELEASE” (The Jordanian Pharmaceutical Manufacturing Co., priority 2007, published 2010).

What was measured:
[1] = single 200-mg oral dose, fasting subjects; cited from earlier work
[2] = Water solubility; format: physicochemical

Row | SMILES | time of peak plasma levels after administration [1] | water solubility [2]
1 | CC(C)Cc1ccc(C(C)C(=O)O)cc1 (centres unmarked) [Ibuprofen] | about 1 hr | –
2 | CC(=O)O.CC(C)Cc1ccc(C(C)C(=O)O)cc1 (centres unmarked) [Ibuprofen ethanoate] | – | water insoluble
